This passage reports IC50 results from patent US20050070554A1, “Substituted heterocyclic compounds and methods of use” (Amgen Inc., priority 2003, published 2005).

T1 sequence (P06239 225-509): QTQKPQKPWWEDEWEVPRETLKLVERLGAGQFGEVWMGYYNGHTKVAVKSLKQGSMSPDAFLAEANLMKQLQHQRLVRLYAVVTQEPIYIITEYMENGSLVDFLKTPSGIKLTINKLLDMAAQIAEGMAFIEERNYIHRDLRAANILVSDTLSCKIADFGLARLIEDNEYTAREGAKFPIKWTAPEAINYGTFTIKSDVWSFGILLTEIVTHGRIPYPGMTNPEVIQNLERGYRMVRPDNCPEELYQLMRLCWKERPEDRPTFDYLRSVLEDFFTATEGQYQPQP

The first assay has as its target T1, LCK (Homo sapiens, UniProt P06239).
T1 construct: LCK KD GST (225-509); GST
In words: LCK-Homogeneous Time Resolved Fluorescent (HTRF) Kinase Assay. The assay is classed as biochemical.
Details: not given
How it is done:
LCK-Homogeneous Time Resolved Fluorescent (HTRF) Kinase Assay:
The LCK HTRF assay begins with LCK in the presence of ATP phosphorylating the biotinylated peptide Gastrin. The reaction incubates for 90 min. To quench the assay detection reagents are added which both stop the reaction by diluting out the enzyme and chelating the metals due to the presence of EDTA. Once the detection reagents are added the assay incubates for 30 min to allow for equilibration of the detection reagents.
Buffer conditions are as follows: 50 mM HEPES pH 7.5, 50 mM NaCl, 20 mM MgCl, 5 mM MnCl, 2 mM DTT, 0.05% BSA.
The assay is quenched and stopped with 160 μL of detection reagent. Detection reagents are as follows: Buffer made of 50 mM Tris, pH 7.5, 100 mM NaCl, 3 mM EDTA, 0.05% BSA, 0.1% Tween20.
The assay plate is read in either a Discovery or a RubyStar.
In general terms: Time-resolved FRET reads energy transfer from a long-lived donor to a nearby acceptor.
The compound `Cc1cccc(C)c1-n1c(=O)c2cnc(Nc3ccc(OCCCN4CCCCC4)cc3)nc2n2c3ccccc3nc12` [No. 32, 6-(2,6-dimethylphenyl)-2-((4-((3-(1-piperidinyl)-propyl)oxy)phenyl)amino)pyrimido[5′,4′:5,6]-pyrimido[1,2-a]benzimidazol-5(6H)-one] showed an IC50 of under 1 µM.
On to `Cc1cccc(C)c1-n1c(=O)c2cnc(Nc3ccc(OCCN4CCN(C)CC4)c(F)c3)nc2n2c3ccccc3nc12` [No. 38, 6-(2,6-dimethylphenyl)-2-((3-fluoro-4-((2-(4-methyl-1-piperazinyl)ethyl)oxy)phenyl)amino)-pyrimido[5′,4′:5,6]pyrimido[1,2-a]benzimidazol-5(6H)-one], for which the IC50 was under 1 µM.

Still in this assay, the particulars now being: read-out: activity in the LCK-HTRF Kinase Assay.
In the case of `Cc1cccc(C)c1-n1c(=O)c2cnc(Nc3ccc(OC[C@@H]4CCCN4C)cc3)nc2n2c3ccccc3nc12` [No. 28, 6-(2,6-dimethylphenyl)-2-((4-((((2S)-1-methyl-2-pyrrolidinyl)methyl)oxy)phenyl)amino)-pyrimido[5′,4′:5,6]pyrimido[1,2-a]benzimidazol-5(6H)-one], the IC50 was under 1 µM.
Still for that read-out and setting: the result for `Cc1cccc(C)c1-n1c(=O)c2cnc(Nc3ccc(OCCN4CCOCC4)cc3)nc2n2c3ccccc3nc12` [No. 29, 6-(2,6-dimethylphenyl)-2-((4-((2-(4-morpholinyl)-ethyl)oxy)phenyl)amino)pyrimido[5′,4′:5,6]-pyrimido[1,2-a]benzimidazol-5(6H)-one] reads under 1 µM; that for `COc1cc(Nc2ncc3c(=O)n(-c4c(C)cccc4C)c4nc5ccccc5n4c3n2)cc(OC)c1OCCN1CCOCC1` [No. 30, 2-((3,5-bis(methyloxy)-4-((2-(4-morpholinyl)ethyl)-oxy)phenyl)amino)-6-(2,6-dimethylphenyl)-pyrimido[5′,4′:5,6]pyrimido[1,2-a]benzimidazol-5(6H)-one], under 1 µM.
In the case of `Cc1cccc(C)c1-n1c(=O)c2cnc(Nc3ccc(N4CCN(C(C)C)CC4)cc3)nc2n2c3ccccc3nc12` [No. 31, 6-(2,6-dimethylphenyl)-2-((4-(4-(1-methylethyl)-1-piperazinyl)phenyl)amino)pyrimido[5′,4′:5,6]-pyrimido[1,2-a]benzimidazol-5(6H)-one], the IC50 was under 1 µM.
Consider `CNCCOc1ccc(Nc2ncc3c(=O)n(-c4c(C)cccc4C)c4nc5ccccc5n4c3n2)cc1` [No. 33, 6-(2,6-dimethylphenyl)-2-((4-((2-(methylamino)-ethyl)oxy)phenyl)amino)pyrimido[5′,4′:5,6]-pyrimido[1,2-a]benzimidazol-5(6H)-one], for which the IC50 was under 1 µM.
The same measure, in the same setting: the result for `Cc1cccc(C)c1-n1c(=O)c2cnc(Nc3ccc(OCCN4CCN(C)CC4)cc3)nc2n2c3ccccc3nc12` [No. 34, 6-(2,6-dimethylphenyl)-2-((4-((2-(4-methyl-1-piperazinyl)ethyl)oxy)phenyl)amino)-pyrimido[5′,4′:5,6]pyrimido[1,2-a]benzimidazol-5(6H)-one] reads under 1 µM; that for `Cc1cccc(C)c1-n1c(=O)c2cnc(Nc3ccc(OCCN4CCCCC4)c(F)c3)nc2n2c3ccccc3nc12` [No. 35, 6-(2,6-dimethylphenyl)-2-((3-fluoro-4-((2-(1-piperidinyl)ethyl)oxy)phenyl)amino)-pyrimido[5′,4′:5,6]pyrimido[1,2-a]benzimidazol-5(6H)-one], under 1 µM.
Same read-out and setting: as for `Cc1cccc(C)c1-n1c(=O)c2cnc(Nc3cccc(OCCCN4CCCCC4)c3)nc2n2c3ccccc3nc12` [No. 36, 6-(2,6-dimethylphenyl)-2-((3-((3-(1-piperidinyl)-propyl)oxy)phenyl)amino)pyrimido[5′,4′:5,6]-pyrimido[1,2-a]benzimidazol-5(6H)-one], the figure is under 1 µM.
On the same count and under the same terms, as for `COc1cc(Nc2ncc3c(=O)n(-c4c(C)cccc4C)c4nc5ccccc5n4c3n2)ccc1N1CCNCC1` [No. 37, 6-(2,6-dimethylphenyl)-2-((3-(methyloxy)-4-(1-piperazinyl)phenyl)amino)pyrimido[5′,4′:5,6]-pyrimido[1,2-a]benzimidazol-5(6H)-one], the figure is under 1 µM; as for `Cc1cccc(C)c1-n1c(=O)c2cnc(Nc3cccc(OCCCN4CCN(C)CC4)c3)nc2n2c3ccccc3nc12` [No. 39, 6-(2,6-dimethylphenyl)-2-((3-((3-(4-methyl-1-piperazinyl)propyl)oxy)phenyl)amino)-pyrimido[5′,4′:5,6]pyrimido[1,2-a]benzimidazol-5(6H)-one], under 1 µM.
With `Cc1cccc(C)c1-n1c(=O)c2cnc(Nc3ccc(N4CCN(C)CC4)c(Cl)c3)nc2n2c3ccccc3nc12` [No. 40, 2-((3-chloro-4-(4-methyl-1-piperazinyl)phenyl)-amino)-6-(2,6-dimethylphenyl)pyrimido[5′,4′:5,6]-pyrimido[1,2-a]benzimidazol-5(6H)-one], the IC50 is under 1 µM.
For the compound `Cc1cccc(C)c1-n1c(=O)c2cnc(Nc3ccc(N4CCN(C(C)C)CC4)c(Cl)c3)nc2n2c3ccccc3nc12` [No. 41, 2-((3-chloro-4-(4-(1-methylethyl)-1-piperazinyl)-phenyl)amino)-6-(2,6-dimethylphenyl)-pyrimido[5′,4′:5,6]pyrimido[1,2-a]benzimidazol-5(6H)-one], the IC50 is under 1 µM.
Still for that read-out and setting: as for `Cc1cccc(C)c1-n1c(=O)c2cnc(Nc3ccc(N4CCN(CC5CCCCC5)CC4)cc3)nc2n2c3ccccc3nc12` [No. 42, 2-((4-(4-(cyclohexylmethyl)-1-piperazinyl)phenyl)-amino)-6-(2,6-dimethylphenyl)pyrimido[5′,4′:5,6]-pyrimido[1,2-a]benzimidazol-5(6H)-one], the figure is under 1 µM; as for `COc1cc(Nc2ncc3c(=O)n(-c4c(C)cccc4C)c4nc5ccccc5n4c3n2)ccc1OCCNC(C)C` [No. 43, 6-(2,6-dimethylphenyl)-2-((4-((2-((1-methylethyl)-amino)ethyl)oxy)-3-(methyloxy)phenyl)amino)-pyrimido[5′,4′:5,6]pyrimido[1,2-a]benzimidazol-5(6H)-one], under 1 µM.
Still for that read-out and setting: as for `Cc1cccc(C)c1-n1c(=O)c2cnc(Nc3ccc(N4CCN(C(C)C)CC4)c(F)c3)nc2n2c3ccccc3nc12` [No. 44, 6-(2,6-dimethylphenyl)-2-((3-fluoro-4-(4-(1-methylethyl)-1-piperazinyl)phenyl)amino)-pyrimido[5′,4′:5,6]pyrimido[1,2-a]benzimidazol-5(6H)-one], the figure is under 1 µM.
On the same count and under the same terms, the result for `Cc1cccc(C)c1-n1c(=O)c2cnc(Nc3ccc(N4CCN(CCN(C)C)CC4)cc3)nc2n2c3ccccc3nc12` [No. 45, 2-((4-(4-(2-(dimethylamino)ethyl)-1-piperazinyl)-phenyl)amino)-6-(2,6-dimethylphenyl)-pyrimido[5′,4′:5,6]pyrimido[1,2-a]benzimidazol-5(6H)-one] reads under 1 µM; that for `COc1cc(Nc2ncc3c(=O)n(-c4c(C)cccc4C)c4nc5ccccc5n4c3n2)ccc1N1CCN(C(C)C)CC1` [No. 46, 6-(2,6-dimethylphenyl)-2-((4-(4-(1-methylethyl)-1-piperazinyl)-3-(methyloxy)phenyl)amino)-pyrimido[5′,4′:5,6]pyrimido[1,2-a]benzimidazol-5(6H)-one], under 1 µM; that for `Cc1cccc(C)c1-n1c(=O)c2cnc(Nc3ccc(OCCNC(C)C)c(Cl)c3)nc2n2c3ccccc3nc12` [No. 47, 2-((3-chloro-4-((2-((1-methylethyl)amino)ethyl)oxy)-phenyl)amino)-6-(2,6-dimethylphenyl)-pyrimido[5′,4′:5,6]pyrimido[1,2-a]benzimidazol-5(6H)-one], under 1 µM.
On to `Cc1cccc(C)c1-n1c(=O)c2cnc(Nc3cccc(N4CCN(C)CC4)c3)nc2n2c3ccccc3nc12` [No. 48, 6-(2,6-dimethylphenyl)-2-((3-(4-methyl-1-piperazinyl)phenyl)amino)pyrimido[5′,4′:5,6]-pyrimido[1,2-a]benzimidazol-5(6H)-one], for which the IC50 is under 1 µM.
Still for that read-out and setting: as for `Cc1cccc(C)c1-n1c(=O)c2cnc(Nc3ccc(N4CCN(CCCN(C)C)CC4)cc3)nc2n2c3ccccc3nc12` [No. 49, 2-((4-(4-(3-(dimethylamino)propyl)-1-piperazinyl)-phenyl)amino)-6-(2,6-dimethylphenyl)-pyrimido[5′,4′:5,6]pyrimido[1,2-a]benzimidazol-5(6H)-one], the figure is under 1 µM.
As to `Cc1cccc(C)c1-n1c(=O)c2cnc(Nc3ccc(N4CCN(CC(N)=O)CC4)cc3)nc2n2c3ccccc3nc12` [No. 50, 2-(4-(4-((6-(2,6-dimethylphenyl)-5-oxo-5,6-dihydropyrimido[5′,4′:5,6]pyrimido[1,2-a]-benzimidazol-2-yl)amino)phenyl)-1-piperazinyl)-acetamide], the IC50 is under 1 µM.
On to `Cc1cccc(C)c1-n1c(=O)c2cnc(Nc3ccc(N4CCN(Cc5cccc(Cl)c5)CC4)cc3)nc2n2c3ccccc3nc12` [No. 51, 2-((4-(4-((3-chlorophenyl)methyl)-1-piperazinyl)-phenyl)amino)-6-(2,6-dimethylphenyl)-pyrimido[5′,4′:5,6]pyrimido[1,2-a]benzimidazol-5(6H)-one], for which the IC50 was under 1 µM.
Regarding `COc1cccc(CN2CCN(c3ccc(Nc4ncc5c(=O)n(-c6c(C)cccc6C)c6nc7ccccc7n6c5n4)cc3)CC2)c1` [No. 52, 6-(2,6-dimethylphenyl)-2-((4-(4-((3-(methyloxy)-phenyl)methyl)-1-piperazinyl)phenyl)amino)-pyrimido[5′,4′:5,6]pyrimido[1,2-a]benzimidazol-5(6H)-one], the IC50 was under 1 µM.
Turning to `Cc1cccc(C)c1-n1c(=O)c2cnc(Nc3ccc(N4CCN(Cc5cccc(C#N)c5)CC4)cc3)nc2n2c3ccccc3nc12` [No. 53, 3-((4-(4-((6-(2,6-dimethylphenyl)-5-oxo-5,6-dihydropyrimido[5′,4′:5,6]pyrimido[1,2-a]-benzimidazol-2-yl)amino)phenyl)-1-piperazinyl)-methyl)benzonitrile], the IC50 is under 1 µM.
